Measurements as given in patent US20050107611A1, “Pyrazolyl-substituted triazoloquinoxalines” (priority 2001, published 2005).
Where two headings read alike, the source gives them in different places.

Tests used:
adenosine receptors = conditions: in words; development for ischemic stroke halted; cited from earlier work
A2A adenosine receptor [1] = target: T1, A2A adenosine receptor (Rattus norvegicus, UniProt P30543); conditions: Table 1, literature values; cited from earlier work
A1 adenosine receptor [2] = target: T2, A1 adenosine receptor (Rattus norvegicus, UniProt P25099); conditions: cited from earlier work
T2 sequence (P25099 1-326): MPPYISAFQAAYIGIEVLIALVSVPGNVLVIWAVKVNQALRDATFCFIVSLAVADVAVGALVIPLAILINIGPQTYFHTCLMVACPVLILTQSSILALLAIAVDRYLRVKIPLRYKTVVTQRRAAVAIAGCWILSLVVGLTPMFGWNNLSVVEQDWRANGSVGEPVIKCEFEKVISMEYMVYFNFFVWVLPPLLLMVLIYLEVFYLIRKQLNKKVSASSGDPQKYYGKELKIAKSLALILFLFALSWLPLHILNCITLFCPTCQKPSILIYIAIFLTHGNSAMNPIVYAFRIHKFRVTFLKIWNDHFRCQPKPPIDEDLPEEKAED

[3] = in words; cited from earlier work
A2A-receptors = conditions: read-out: KiA2A; cited from earlier work
[4] = in words; cited from earlier work; remark: listed apart in the source
A1 adenosine receptor [5] = target: T2, A1 adenosine receptor; assay: Radioligand binding with [3H]CCPA on A1-adenosine receptors, rat brain cortex membranes; parameters: tissue Pel Freez Company (Rogers, Ark., USA); host or cells: rat brain cerebral cortex membranes; conditions: Table 2; [3H]CCPA; read-out: A1 K1
Source text: (§1) The data of the biological tests that are cited below results from radioligand-binding assays on A1, A2A, A2B and A3 adenosine receptors (ARs).
(§2) The following selective radioligands are used in the biological tests: • [^3H]CCPA (for A1 ARs) [Klotz et al., Naunyn-Schmiedeberg's Arch. Pharmacol., 340, 679 (1989)] • [^3]MSX-2 (for A2A ARs) [Muiller et al., Eur. J. Pharm. Sci., 10, 259 (2000)] • [^3H]ZM241385 (for A2B ARs_[X.-D. Ji, K. A. Jacobson, Drug Des. Discov., 16, 217 (1999)] • [^3H]PSB-11 (new antagonistic radioligand for human A3 ARs) [M. Dieckmann, M. Thorand, V. Ozola, C. E. Muiller, in Vorbereitung [Preparation] (2001)]. • [^125I]AB-MECA (for rat-A3 ARs) [Olah et al., Mol. Pharmacol., 45, 978 (1994)]. Description of the Assays That are Used for Testing Substances Production of Tissue Preparations Made from Rat Brains
For the preparations, deep-frozen rat brains of the Pel Freez Company (Rogers, Ark., USA) are used. The rat brains are thawed in 0.32 M saccharose solution, the cortex is cut off, and the striata are prepared outside.
(§3) The cell decomposing of the cerebral cortex is carried out with a glass-Teflon homogenizer (stages 5-6, 10 seconds) in 0.32 M saccharose solution. The membranes are purified over various centrifuging steps. With centrifuging at 600 g, 4° C., for 10 minutes, a large amount of cell debris is separated via the P1 fraction, and the supernatant (P2 fraction) is further worked up: in the subsequent three centrifuging steps (35,000 g; 4° C.; 60 minutes), a pellet is produced that is resuspended in 50 mmol of TRIS buffer, pH 7.4 with the Ultraturrax (stages 3-4, 3 seconds); the respective supernatant is discarded. The striata are added to cold TRIS buffer, homogenized with the Ultraturrax in stages 3 to 4-(3 seconds) and then centrifuged at 35,000 g, 4° C., for 20 minutes. The supernatant is discarded, and the pellet is resuspended in 50 mmol of TRIS buffer (50 mmol, pH 7.4). The washing process is repeated twice more. The membrane preparations are stored at −80° C. and are held for several months. The cerebral cortex membrane preparation is used for A1-radioligand binding studies, and the striatum is used for A2A-radiologiand binding studies.
(§4) The test substances are dissolved in DMSO to 10 mmol. The final concentration of DMSO in the assay is 2.5% for A1- and A2A-adenosine receptor assays and 1-2% for A2B- and A3-assays. Dilution series of the test substances are produced from the stock solution. Five to eight different test concentrations, which comprise 3 orders of magnitude (e.g., 1 nm to 1000 nm), are used.
Radioligand Binding Studies with [^3H]CCPA on A1-Adenosine Receptors:
The mixture is incubated for 90 minutes in an oscillating water bath at 23° C. Then, it is filtered off with a Brandel cell-harvester and washed twice more with ice-cooled TRIS buffer, 50 mmol, pH 7.4 (3 ml). The filter plates are conveyed in scintillation vials, doused with 2.5 ml of Ultima Gold Scintillation cocktail and incubated for at least 6 hours before they are measured in a scintillation counter.
(§5) The mean value is calculated from three independent experiments. IC50 and K, values are obtained from the Cheng-Prusoff equation, the concentration and the KD value of the radioligand. For calculation, the program GraphPadPrism™, Version 3.0 (GraphPad, San Diego, Calif., USA), was used.

A2A adenosine receptor [6] = target: T1, A2A adenosine receptor; assay: Receptor binding assay with [3H]MSX-2 on A2A-adenosine receptors; parameters: tissue Pel Freez Company (Rogers, Ark., USA); host or cells: rat brain striatum membranes; conditions: for Ki: Table 2, [3H]MSX-2, read-out: A2A K1
Source text: as §1, §2, §3, §4
Receptor Binding Assay with [^3H]MSX-2 on A2A-Adenosine Receptors:
• 25 μl of DMSO, NECA (800 μmol) or test substance dilutions • 775 μl of TRIS buffer (for production, see above) • 100 μl of [^3H]MSX-2 (final concentration 1 nmol; KD value 8 nmol) • 100 μl of rat-striatum-membrane preparation or preparation of CHO cells, which express the human A2A receptor, incubated with 0.12 IE adenosine-deaminase (protein concentration: 25-75 μg/ml) • 1000 μl of final volume
The assay is performed according to the instructions of the receptor-binding assay with [^3H]CCPA with consideration of the amounts and solutions that are listed above. The incubation time is 30 minutes at 23° C. in an oscillating water bath. The glass fiber filter is introduced 30 minutes before use in 0.5% PEI solution.
as §5

[7] = Table 1, literature values, read-out: A1 K1

T1 sequence (P30543 whole entry): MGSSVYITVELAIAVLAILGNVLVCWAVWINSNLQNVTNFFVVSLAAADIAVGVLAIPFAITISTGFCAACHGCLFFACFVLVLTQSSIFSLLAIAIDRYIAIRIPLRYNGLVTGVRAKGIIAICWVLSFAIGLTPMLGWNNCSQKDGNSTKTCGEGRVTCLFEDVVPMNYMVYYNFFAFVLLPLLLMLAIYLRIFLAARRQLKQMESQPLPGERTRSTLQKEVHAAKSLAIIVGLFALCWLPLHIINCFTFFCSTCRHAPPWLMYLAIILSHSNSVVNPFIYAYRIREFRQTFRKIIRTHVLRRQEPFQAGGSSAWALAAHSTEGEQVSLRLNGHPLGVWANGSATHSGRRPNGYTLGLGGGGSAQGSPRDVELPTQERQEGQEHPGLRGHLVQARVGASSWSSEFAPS

| Ki (A1 adenosine receptor [5]) | Ki (A2A adenosine receptor [6]) | SMILES | A2A % Inhibition @ 25 μmol (A2A adenosine receptor [1]) | Ki (A1 adenosine receptor [2]; [7]) | also measured |
| --- | --- | --- | --- | --- | --- |
|  |  | Nc1nc2ccc(Cl)cc2c2nc(-c3ccco3)nn12 [CGS-15943, 9-Chloro-2-(2-furanyl)-[1,2,4]triazolo[1,5-c]quinazoline-5-amine] |  |  | selectivity (adenosine receptors): inadequate selectivity |
|  |  | Clc1cc(-c2nc3ccccc3n3c(-c4ccco4)nnc23)[nH]n1 [R = 2-Furyl] | (31% ± 3%) | 410 ± 160 nM |  |
|  |  | Clc1cc(-c2nc3ccccc3n3c(-c4cccs4)nnc23)[nH]n1 [R = 2-Thienyl] | (22% ± 13%) | 710 ± 60 nM |  |
|  |  | Clc1cc(-c2nc3ccccc3n3c(Cc4cccs4)nnc23)[nH]n1 [R = 2-Thienylmethyl] | (21% ± 10%) |  | Ki (A1 adenosine receptor [2]; read-out: KiA1): 200 nM |
|  |  | Clc1cc(-c2nc3ccccc3n3c(-c4ccccc4)nnc23)[nH]n1 [R = —C6H5] | (0%) | 1620 ± 680 nM |  |
|  |  | Clc1cc(-c2nc3ccccc3n3c(Cc4ccccc4)nnc23)[nH]n1 [R =—CH2C6H5] | (6.1% ± 1.5%) | 310 ± 90 nM |  |
|  |  | Nc1nc2c(cnn2CCc2ccccc2)c2nc(-c3ccco3)nn12 [Sch-52861, 2-(2-Furanyl)-7-(2-phenylethyl)-7H-pyrazolo[4,3-e][1,2,4]triazolo[1,5-c]pyrimidine-5-amine] |  |  | solubility [3]: inadequate solubility; Ki (A2A-receptors): 2.3 nM; oral bioavailability [4]: poor oral bioavailability |
| 330 nM | 4100 nM | Clc1cc(-c2nc3ccccc3n3c(-c4ccsc4)nnc23)n[nH]1 [Y = C-(3-Thienyl), R5 = H, R6 = Cl] |  |  |  |
| 620 nM | > 10000 nM | Clc1cc(-c2nc3ccccc3n3c(COCc4ccccc4)nnc23)n[nH]1 [Y = C—CH2—O—CH2-Ph, R5 = H, R6 = Cl] |  |  | A2A % inhib. @ 10 μmol (A2A adenosine receptor [6]; 10 μmol): (3%) |
| 100 nM | 1180 nM | CC(Oc1ccccc1)c1nnc2c(-c3cc(Cl)[nH]n3)nc3ccccc3n12 (stereo not drawn) [Y = C—CH—(CH3)—O-Ph, R5 = H, R6 = Cl] |  |  |  |
